Assays:
Type in all cases: biochemical
[1] = molecular target: MMP-9FL (full length Gelatinase B) (Homo sapiens, UniProt P14780); assay: Thiopeptolide hydrolysis assay, MMP-9FL; details: thiopeptolide substrate, HEPES pH 7.0, 22° C.
Excerpt: (§1) The assays measure the amount by which a test compound reduces the hydrolysis of a thiopeptolide substrate catalyzed by a matrix metalloproteinase enzyme. Such assays are described in detail by Ye et al., in Biochemistry, 1992;31(45):11231-11235, which is incorporated herein by reference.
(§2) Thiopeptolide substrates show virtually no decomposition or hydrolysis at or below neutral pH in the absence of a matrix metalloproteinase enzyme. A typical thiopeptolide substrate commonly utilized for assays is Ac-Pro-Leu-Gly-thioester-Leu-Leu-Gly-OEt. A 100 μL assay mixture will contain 50 mM of N-2-hydroxyethylpiperazine-N′-2-ethanesulfonic acid buffer (“HEPES”) at pH 7.0, 10 mM CaCl2, 100 μM thiopeptolide substrate, and 1 mM 5,5″-dithio-bis-(2-nitro-benzoic acid) (DTNB). The thiopeptolide substrate concentration may be varied from, for example, 10 to 800 μM to obtain Km and Kcat values. The change in absorbance at 405 nm is monitored on a Thermo Max microplate reader (Molecular Devices, Menlo Park, Calif.) at room temperature (22° C.). The calculation of the amount of hydrolysis of the thiopeptolide substrate is based on E412=13600 M^−1 cm^−1 for the DTNB-derived product 3-carboxy4-nitrothiophenoxide. Assays are carried out with and without matrix metalloproteinase inhibitor compounds, and the amount of hydrolysis is compared for a determination of inhibitory activity of the test compounds.
(§3) Several representative compounds have been evaluated for their ability to inhibit various matrix metalloproteinase enzymes. In Table I, MMP-1FL refers to full length interstitial collagenase; MMP-2FL refers to full length Gelatinase A; MMP-3CD refers to the catalytic domain of stromelysin-1; MMP-7FL refers to full length matrilysin; MMP-9FL refers to full length Gelatinase B; MMP-13CD refers to the catalytic domain of collagenase 3; and MMP-14CD refers to the catalytic domain of MMP-14. Test compounds were evaluated at various concentrations in order to determine their respective IC50 values, the micromolar concentration of compound required to cause a 50% inhibition of the catalytic activity of the respective enzyme.

[2] = molecular target: T1, MMP-7FL (full length matrilysin) (Homo sapiens, UniProt P09237); assay: Thiopeptolide hydrolysis assay, MMP-7FL; details: thiopeptolide substrate, HEPES pH 7.0, 22° C.
T1 sequence (P09237 95-267): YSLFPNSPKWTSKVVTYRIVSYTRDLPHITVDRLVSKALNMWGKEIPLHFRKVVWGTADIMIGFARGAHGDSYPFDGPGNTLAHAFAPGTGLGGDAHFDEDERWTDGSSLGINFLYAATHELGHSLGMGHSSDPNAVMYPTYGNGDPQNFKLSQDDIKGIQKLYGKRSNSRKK
Excerpt: as §1, §2, §3

[3] = molecular target: MMP-14CD (catalytic domain of MMP-14) (Homo sapiens, UniProt P50281); assay: Thiopeptolide hydrolysis assay, MMP-14CD; details: thiopeptolide substrate, HEPES pH 7.0, 22° C.
Excerpt: as §1, §2, §3

[4] = molecular target: MMP-13CD (catalytic domain of collagenase 3) (Homo sapiens, UniProt P45452); assay: Thiopeptolide hydrolysis assay, MMP-13CD; details: thiopeptolide substrate, HEPES pH 7.0, 22° C.
Excerpt: as §1, §2, §3

[5] = molecular target: T2, MMP-2FL (full length Gelatinase A) (Homo sapiens, UniProt P08253); assay: Thiopeptolide hydrolysis assay, MMP-2FL; details: thiopeptolide substrate, HEPES pH 7.0, 22° C.
T2 sequence (P08253 110-660): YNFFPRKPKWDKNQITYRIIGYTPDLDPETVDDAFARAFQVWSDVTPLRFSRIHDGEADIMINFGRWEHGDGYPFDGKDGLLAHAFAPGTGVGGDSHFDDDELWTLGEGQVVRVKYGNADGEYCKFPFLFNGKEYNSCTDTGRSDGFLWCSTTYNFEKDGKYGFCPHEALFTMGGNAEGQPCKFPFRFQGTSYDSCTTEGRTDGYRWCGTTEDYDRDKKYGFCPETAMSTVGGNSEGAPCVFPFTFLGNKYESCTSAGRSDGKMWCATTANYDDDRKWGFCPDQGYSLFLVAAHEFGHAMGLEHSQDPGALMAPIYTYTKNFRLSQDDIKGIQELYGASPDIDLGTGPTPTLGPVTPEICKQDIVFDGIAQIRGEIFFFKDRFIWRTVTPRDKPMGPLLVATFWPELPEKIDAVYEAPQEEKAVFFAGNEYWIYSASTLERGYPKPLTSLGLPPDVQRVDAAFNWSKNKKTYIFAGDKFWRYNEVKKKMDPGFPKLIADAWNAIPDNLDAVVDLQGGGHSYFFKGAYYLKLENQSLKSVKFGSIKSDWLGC
Excerpt: as §1, §2, §3

[6] = molecular target: T3, MMP-12CD (Homo sapiens, UniProt P39900); assay: Thiopeptolide hydrolysis assay, MMP-12CD; details: thiopeptolide substrate, HEPES pH 7.0, 22° C.
T3 construct: MMP-12CD
T3 sequence (P39900 106-263 limits assumed): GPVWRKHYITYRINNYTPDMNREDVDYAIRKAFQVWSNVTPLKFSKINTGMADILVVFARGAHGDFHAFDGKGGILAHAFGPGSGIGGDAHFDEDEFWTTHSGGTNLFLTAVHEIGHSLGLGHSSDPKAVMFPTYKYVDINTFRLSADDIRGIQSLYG
Excerpt: as §1, §2, §3

[7] = molecular target: T4, MMP-1FL (full length interstitial collagenase) (Homo sapiens, UniProt P03956); assay: Thiopeptolide hydrolysis assay, MMP-1FL; details: thiopeptolide substrate, HEPES pH 7.0, 22° C.
T4 sequence (P03956 100-469): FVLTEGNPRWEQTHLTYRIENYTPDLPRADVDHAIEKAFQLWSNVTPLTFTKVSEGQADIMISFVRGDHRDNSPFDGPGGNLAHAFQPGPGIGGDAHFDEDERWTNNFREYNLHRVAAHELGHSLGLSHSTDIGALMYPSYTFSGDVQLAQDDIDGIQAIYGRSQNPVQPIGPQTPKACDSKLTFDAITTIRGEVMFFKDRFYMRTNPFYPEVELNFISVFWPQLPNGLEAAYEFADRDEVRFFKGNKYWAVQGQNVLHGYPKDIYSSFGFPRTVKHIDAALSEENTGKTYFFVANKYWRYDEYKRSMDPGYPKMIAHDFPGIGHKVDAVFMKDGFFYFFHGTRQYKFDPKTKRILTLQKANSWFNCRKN
Excerpt: as §1, §2, §3

[8] = molecular target: MMP-3CD (catalytic domain of stromelysin-1) (Homo sapiens, UniProt P08254); assay: Thiopeptolide hydrolysis assay, MMP-3CD; details: thiopeptolide substrate, MES pH 6.0
Chain of MMP-3CD (catalytic domain of stromelysin-1) (P08254 100-272 limits assumed): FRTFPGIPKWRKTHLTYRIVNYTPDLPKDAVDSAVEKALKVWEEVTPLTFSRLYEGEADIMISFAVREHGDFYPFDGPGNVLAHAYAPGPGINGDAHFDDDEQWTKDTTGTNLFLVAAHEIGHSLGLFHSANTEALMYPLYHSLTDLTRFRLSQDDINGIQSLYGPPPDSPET
Excerpt: as §1, §2, §3
It should be appreciated that the assay buffer used with MMP-3CD was 50 mM of 2-morpholinoethanesulfonic acid monohydrate (“MES”) at pH 6.0 rather than the HEPES buffer at pH 7.0 described above.

Chain of MMP-9FL (full length Gelatinase B) (P14780 94-707, species assumed): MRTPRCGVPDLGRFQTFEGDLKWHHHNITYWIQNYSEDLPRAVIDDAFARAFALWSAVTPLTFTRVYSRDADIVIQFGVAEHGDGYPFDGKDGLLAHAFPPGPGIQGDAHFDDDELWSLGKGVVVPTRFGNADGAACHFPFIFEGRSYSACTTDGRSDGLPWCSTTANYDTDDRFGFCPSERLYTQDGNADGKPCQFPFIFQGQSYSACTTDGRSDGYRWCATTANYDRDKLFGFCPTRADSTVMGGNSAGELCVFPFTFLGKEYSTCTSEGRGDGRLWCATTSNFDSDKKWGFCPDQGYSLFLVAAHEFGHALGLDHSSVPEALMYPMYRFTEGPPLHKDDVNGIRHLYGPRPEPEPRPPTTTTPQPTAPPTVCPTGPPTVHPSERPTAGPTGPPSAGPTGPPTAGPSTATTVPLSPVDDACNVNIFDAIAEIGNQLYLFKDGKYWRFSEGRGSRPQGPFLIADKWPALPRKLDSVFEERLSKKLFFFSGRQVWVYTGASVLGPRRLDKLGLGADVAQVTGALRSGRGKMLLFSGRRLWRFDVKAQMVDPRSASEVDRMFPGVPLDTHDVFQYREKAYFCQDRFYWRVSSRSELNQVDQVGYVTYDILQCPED

| IC50 [1] | IC50 [2] | IC50 [3] | IC50 [4] | IC50 [5] | IC50 [6] | IC50 [7] | IC50 [8] | SMILES |
| --- | --- | --- | --- | --- | --- | --- | --- | --- |
| 0.13 µM | 31.7 µM | 0.0567 µM | 0.0108 µM | 0.00635 µM | 0.00113 µM | 10.8 µM | 0.0104 µM | CC1(C)SCCN(S(=O)(=O)c2ccc(-c3ccc4ccccc4c3)cc2)[C@H]1C(=O)O [Example 36, (S)-2,2-Dimethyl-4-(4-naphthalen-2-yl-benzenesulfonyl)-thiomorpholine-3-carboxylic acid] |
| 0.018 µM | 70 µM | 0.16 µM | 0.0033 µM | 0.0023 µM | 0.001 µM | 7.95 µM | 0.0038 µM | CCOc1ccc(-c2ccc(S(=O)(=O)N3CCSC(C)(C)[C@@H]3C(=O)O)cc2)cc1 [Example 43, (S)-4-(4′-Ethoxy-biphenyl-4-sulfonyl)-2,2-dimethyl-thiomorpholine-3-carboxylic acid] |
| 25.8 µM | – | 0.037 µM | 2.04 µM | 1.55 µM | – | – | 0.775 µM | COc1ccc(-c2ccc(S(=O)(=O)N3CCSC(C)(C)[C@@H]3C(=O)O)cc2)cc1C=O [Example 48, (S)-4-(3′-Formyl-4′-methoxy-biphenyl-4-sulfonyl)-2,2-dimethyl-thiomorpholine-3-carboxylic acid] |
| 0.14 µM | 9 µM | – | 0.01 µM | 0.0061 µM | 0.00125 µM | 5.4 µM | 0.0074 µM | CCc1ccc(-c2ccc(S(=O)(=O)N3CCSC(C)(C)[C@@H]3C(=O)O)cc2)cc1 [Example 47, (S)-4-(4′-Ethyl-biphenyl-4-sulfonyl)-2,2-dimethyl-thiomorpholine-3-carboxylic acid] |
| 0.78 µM | 8.8 µM | 0.059 µM | 0.032 µM | 0.012 µM | – | 1.7 µM | 0.005 µM | CC1(C)[C@H](C(=O)O)N(S(=O)(=O)c2ccc(-c3ccc(Br)cc3)cc2)CCS1(=O)=O [Example 3, (S)-4-(4′-Bromo-biphenyl-4-sulfonyl)-2,2-dimethyl-1,1-dioxo-thiomorpholine-3-carboxylic acid] |
| 0.17 µM | – | 0.19 µM | 0.013 µM | 0.024 µM | 0.0103 µM | 11.3 µM | 0.03 µM | CN(C)c1ccc(-c2ccc(S(=O)(=O)N3CCSC(C)(C)[C@@H]3C(=O)O)cc2)cc1 [Example 54] |
| 6.65 µM | 92.5 µM | 0.615 µM | 0.3 µM | 0.23 µM | 0.0285 µM | 9.7 µM | 0.054 µM | CC1(C)SCCN(S(=O)(=O)c2ccc(-c3ccc(F)c(F)c3)cc2)[C@H]1C(=O)O [Example 41, (S)-4-(3′,4′-Difluoro-biphenyl-4-sulfonyl)-2,2-dimethyl-thiomorpholine-3-carboxylic acid] |
| 0.26 µM | 10 µM | 0.048 µM | 0.016 µM | 0.006 µM | – | 3.1 µM | 0.003 µM | CC1(C)SCCN(S(=O)(=O)c2ccc(-c3ccc(Br)cc3)cc2)[C@H]1C(=O)O [Example 1, (S)-4-(4′-Bromo-biphenyl-4-sulfonyl)-2,2-dimethyl-thiomorpholine-3-carboxylic acid] |
| 0.001 µM | 0.037 µM | 0.001 µM | 0.001 µM | 0.002 µM | – | 0.002 µM | 0.002 µM | CC1(C)SCCN(S(=O)(=O)c2ccc(-c3ccc(Br)cc3)cc2)[C@H]1C(=O)NO [Example 2, (S)-4-(4′-Bromo-biphenyl-4-sulfonyl)-2,2-dimethyl-thiomorpholine-3-carboxylic acid hydroxyamide] |
| 2.2 µM | 13 µM | 1.5 µM | 0.1 µM | 0.17 µM | 0.004 µM | – | 0.0094 µM | CC1(C)SCCN(S(=O)(=O)c2ccc(-c3ccc(Oc4ccccc4)cc3)cc2)[C@H]1C(=O)O [Example 40, (S)-2,2-Dimethyl-4-(4′-phenoxy-biphenyl-4-sulfonyl)-thiomorpholine-3-carboxylic acid] |
| 0.063 µM | 10 µM | 0.24 µM | 0.047 µM | 0.018 µM | – | 1.5 µM | 0.027 µM | CC1(C)SCCN(S(=O)(=O)c2ccc(-c3ccc(CO)cc3)cc2)[C@H]1C(=O)O [Example 5, (S)-4-(4′-Hydroxymethyl-biphenyl-4-sulfonyl)-2,2-dimethyl-thiomorpholine-3-carboxylic acid] |
| 0.098 µM | – | 0.128 µM | – | 0.0027 µM | 0.001 µM | 5.75 µM | 0.004 µM | CC1(C)SCCN(S(=O)(=O)c2ccc(-c3ccc(OC(F)(F)F)cc3)cc2)[C@H]1C(=O)O [Example 45, (S)-2,2-Dimethyl-4-(4′-trifluoromethoxy-biphenyl-4-sulfonyl)-thiomorpholine-3-carboxylic acid] |
| 30 µM | – | – | 5.3 µM | 5.2 µM | – | – | 1.1 µM | CC1(C)SCCN(S(=O)(=O)c2ccc(-c3cccc(OC(F)(F)F)c3)cc2)[C@H]1C(=O)O [Example 59, (S)-2,2-Dimethyl-4-(3′-trifluoromethoxy-biphenyl-4-sulfonyl)-thiomorpholine-3-carboxylic acid] |
| 0.479 µM | – | – | 0.021 µM | 0.035 µM | – | – | 0.0154 µM | CC1(C)SCCN(S(=O)(=O)c2ccc(-c3cccc(C=O)c3)cc2)[C@H]1C(=O)O [Example 35, (S)-4-(3′-Formyl-biphenyl-4-sulfonyl)-2,2-dimethyl-thiomorpholine-3-carboxylic acid] |
| 0.004 µM | 0.031 µM | 0.002 µM | 0.001 µM | 0.001 µM | – | 0.005 µM | 0.003 µM | CC1(C)[C@H](C(=O)NO)N(S(=O)(=O)c2ccc(-c3ccc(Br)cc3)cc2)CCS1(=O)=O [Example 4, (S)-4-(4′-Bromo-biphenyl-4-sulfonyl)-2,2-dimethyl-1,1-dioxo-thiomorpholine-3-carboxylic acid hydroxyamide] |

Source: patent US6686355B2, “Biphenyl sulfonamides useful as matrix metalloproteinase inhibitors” (Warner-Lambert Company, priority 2001, dated 2004)
